Columns and labels:
[1] = tested on: primary acute myeloid leukemia blasts; assay: In vitro apoptosis (Annexin V) and cell count of primary AML blasts; type: cell-based, human
Procedure: Annexin V-PE apoptosis detection kit (BD Pharmingen, BD Bioscience, USA) was used to assess apoptosis.
Cell Culture: Materials used for in vitro assays of AML cells included X-VIVO 10 medium supplemented with 15% BIT, and growth factors including 100 ng/mL of stem cell factor, 20 ng/mL of IL-6, 20 ng/mL of G-CSF, 20 ng/mL of IL-3, 100 ng/mL of Flt 3 ligand (each provided by Amgen, USA), 20 ng/mL of GM-CSF (R&D Systems, USA), and 50 ng/mL of thrombopoietin (Kirin Brewery, Japan).
Assay Procedure: After 4 and 24 hours of in vitro culture with DMSO or Compound D, cells were harvested for GSPT1 expression and apoptosis. Levels of GSPT1 were analyzed by flow cytometry using median fluorescence intensity (MFI) and normalized against DMSO controls. Apoptosis was also analyzed by flow cytometry and measured as percentage of cells which were positive for cleaved caspase 3/7.
Viably frozen primary leukemia cells were thawed and plated in suspension culture in the Iscove's Modified Dulbecco's Medium plus 15% BIT Serum Substitute (Stem Cell Technology, Canada), supplemented with multiple human growth factors. Compound D was added to the culture at indicated concentrations.
For GSPT1 expression, intracellular flow cytometry (FACS) was performed at 24 hours in culture by staining cells with GSPT1 conjugated with Alexa Fluor 647. For apoptosis, cells were harvested at 24 hours in culture and stained with Annexin V-PE and 7-aminoactinomycin D (7AAD) (BD Biosciences, USA).

primary AML graft = assay: Pilot in vivo dose study on primary AML graft, 2 weeks dosing; design: species or system NOD/SCID mice
Procedure: Intrafemoral Transplantation: One day prior to transplantation, NOD/SCID mice were preconditioned by sublethally irradiating (275 cGy) followed by injection with anti-CD122 antibody (200 μg/mouse) to deplete residual host natural killer (NK) cells. On the day of transplantation, viably frozen AML bulk cells (see Section 6.2.1.2) were thawed, counted, and transplanted intrafemorally into the preconditioned mice at a dose of 5×10^6 cells/mouse in a total volume of 30 μL phosphate buffered saline.
Cells harvested from injected and non-injected bone marrow were stained with mouse anti human antibodies as indicated in Section 6.2.1.3. After staining, washed cells were run on an LSRII flow cytometer (BD, USA) with 10,000 to 20,000 events collected for each sample. Collected data were analyzed by FlowJo software (TreeStar, USA) to assess AML engraftment levels in different tissues as determined by the percentage of human CD45+CD33+ cells.
A pilot study was first conducted to determine the potential dosage that can be used to target primary AML graft in NOD/SCID mice. Two AML patient samples (AML 110500 and AML 90191) were tested at 1.25 or 2.5 mg/kg Compound D once daily (QD) or twice daily (BID) intraperitoneally for a total of 4 different dose/schedule groups (FIG. 4). Following pretreatment with sublethal irradiation and anti-CD122 antibody, NOD/SCID mice were intrafemorally transplanted with AML cells that were previously collected from patients and viably frozen. Mice were dosed with Compound D for 2 weeks post transplantation starting on Day 21. […] Percentage of cells positive with myeloid cell marker CD15 were also elevated in both RF and BM of 2.5 mg/kg BID Compound D-dosed mice (FIG. 4, bottom left). […] Based on this pilot study, Compound D was dosed at 2.5 mg/kg BID for the rest of the in vivo experiments.

GSPT1 = biological target: T1, GSPT1 (Homo sapiens, UniProt P15170+Q96SW2); assay: In vivo GSPT1 expression in xenograft AML model (intracellular FACS); design: species or system mice
T1 construct: endogenous in cells; host or cells: primary AML patient cells (peripheral blood mononuclear cells) in short-term suspension culture
Procedure: After 4 weeks of transplantation with AML cells, mice were treated with Compound D at 2.5 mg/kg twice a day for 3 doses totally. Four hours after the last treatment, cells were harvested from both injected RF and non-injected BM of each mouse and were stained with CD45-FITC (BD Biosciences, USA), fixed and permeabilized. Cells were then stained with GSPT1-Alexa Fluor 647 for intracellular FACS to detect the expression of GSPT1 in engrafted leukemic cells.

[2] = type: physicochemical
Text: Formulation: 5% NMP/45% polyethylene glycol (PEG) 400/50% Saline; NMP—Catalogue no. 69118 (new no. M79603-1L), Fluka; PEG400—Catalogue no. 81172-1L, Fluka; Saline—0.9% sodium chloride.
Preparation: Weigh the desired amount of compound in glass vial. Add NMP and vortex. Make sure that entire compound is wet. Add PEG400 and vortex until clear solution without particulates. Add saline slowly and mix thoroughly for about a minute with hand held homogenizer with disposable tip.

T1 sequence (P15170 whole entry): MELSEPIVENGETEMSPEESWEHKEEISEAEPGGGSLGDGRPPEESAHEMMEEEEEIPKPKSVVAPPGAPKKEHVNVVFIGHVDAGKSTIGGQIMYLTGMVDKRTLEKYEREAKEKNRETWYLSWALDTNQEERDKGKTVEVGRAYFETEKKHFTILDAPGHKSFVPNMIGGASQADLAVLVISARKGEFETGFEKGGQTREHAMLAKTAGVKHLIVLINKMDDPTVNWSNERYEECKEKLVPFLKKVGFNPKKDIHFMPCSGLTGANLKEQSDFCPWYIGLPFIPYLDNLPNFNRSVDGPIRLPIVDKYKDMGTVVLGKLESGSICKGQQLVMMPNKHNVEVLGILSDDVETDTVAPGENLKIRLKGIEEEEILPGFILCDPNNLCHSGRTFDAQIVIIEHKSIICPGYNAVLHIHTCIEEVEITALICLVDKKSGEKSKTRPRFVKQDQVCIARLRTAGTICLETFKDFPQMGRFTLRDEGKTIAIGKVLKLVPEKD
T1 sequence (Q96SW2 whole entry): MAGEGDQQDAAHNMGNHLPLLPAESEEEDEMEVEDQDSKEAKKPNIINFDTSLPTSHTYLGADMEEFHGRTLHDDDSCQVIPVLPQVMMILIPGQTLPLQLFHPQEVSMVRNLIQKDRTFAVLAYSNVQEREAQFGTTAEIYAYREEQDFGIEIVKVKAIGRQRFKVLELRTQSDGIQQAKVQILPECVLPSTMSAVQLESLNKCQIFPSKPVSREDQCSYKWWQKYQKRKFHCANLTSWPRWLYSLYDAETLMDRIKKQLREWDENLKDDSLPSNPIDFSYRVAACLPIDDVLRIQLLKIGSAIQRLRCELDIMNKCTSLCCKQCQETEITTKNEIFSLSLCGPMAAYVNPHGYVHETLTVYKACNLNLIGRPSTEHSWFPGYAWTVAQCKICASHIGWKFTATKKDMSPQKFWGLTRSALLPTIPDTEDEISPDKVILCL
T1 sequence (Q16531 whole entry partner): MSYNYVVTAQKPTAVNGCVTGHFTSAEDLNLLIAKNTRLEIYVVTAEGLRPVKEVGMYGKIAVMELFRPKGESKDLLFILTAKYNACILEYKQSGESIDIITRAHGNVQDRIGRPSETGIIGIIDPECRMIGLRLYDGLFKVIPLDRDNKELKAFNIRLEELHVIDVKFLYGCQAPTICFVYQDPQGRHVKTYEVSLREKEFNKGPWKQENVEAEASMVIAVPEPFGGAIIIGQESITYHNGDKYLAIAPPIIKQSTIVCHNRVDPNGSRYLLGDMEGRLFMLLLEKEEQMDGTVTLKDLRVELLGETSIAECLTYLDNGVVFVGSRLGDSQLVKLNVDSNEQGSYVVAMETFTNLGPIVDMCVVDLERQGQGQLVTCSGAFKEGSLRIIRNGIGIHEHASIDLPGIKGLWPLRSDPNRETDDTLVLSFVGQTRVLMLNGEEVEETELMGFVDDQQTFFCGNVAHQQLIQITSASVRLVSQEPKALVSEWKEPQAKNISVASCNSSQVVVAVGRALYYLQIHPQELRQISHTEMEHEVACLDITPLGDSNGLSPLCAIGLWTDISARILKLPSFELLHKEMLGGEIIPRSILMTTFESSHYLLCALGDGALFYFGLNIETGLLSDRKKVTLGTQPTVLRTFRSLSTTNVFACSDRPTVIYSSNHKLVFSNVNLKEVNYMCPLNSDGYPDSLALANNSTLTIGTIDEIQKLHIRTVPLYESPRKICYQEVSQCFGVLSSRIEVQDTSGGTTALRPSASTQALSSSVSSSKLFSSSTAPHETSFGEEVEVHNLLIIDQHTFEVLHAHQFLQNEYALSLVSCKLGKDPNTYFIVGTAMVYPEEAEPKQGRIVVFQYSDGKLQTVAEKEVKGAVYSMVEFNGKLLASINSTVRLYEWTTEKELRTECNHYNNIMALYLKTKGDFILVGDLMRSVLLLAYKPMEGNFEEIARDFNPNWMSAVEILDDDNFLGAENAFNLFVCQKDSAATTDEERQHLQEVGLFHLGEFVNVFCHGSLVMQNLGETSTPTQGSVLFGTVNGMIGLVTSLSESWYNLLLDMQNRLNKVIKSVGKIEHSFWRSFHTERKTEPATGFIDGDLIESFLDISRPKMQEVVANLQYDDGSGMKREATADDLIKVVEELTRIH

## O=C1CCC(N2Cc3cc(CNC(=O)C(F)(F)c4ccc(Cl)cc4)ccc3C2=O)C(=O)N1 (stereo not drawn) [Compound D, 2-(4-chlorophenyl)-N-((2-(2,6-dioxopiperidin-3-yl)-1-oxoisoindolin-5-yl)methyl)-2,2-difluoroacetamide]
[1]; 4 hours
  apoptosis: not observed
[1]; 24 hours
  apoptosis, high vs low LSC17 score samples: induced apoptosis at higher levels in samples with high LSC17 scores
[1]; 24 hours, concentration-dependent
  induction of apoptosis, number of samples: observed in 3 of the 10 samples tested
[1]; Section 6.3 samples
  live cells: reduction of live cells
[1]; Section 6.3 samples, 24 hours
  apoptosis: Increased apoptosis
[1]; with increased concentration, 24 hours
  cell numbers: reduced cell numbers for most samples
Primary AML graft; AML 90191
  grafted cells: largely not affected
Primary AML graft; AML 110500, 2.5 mg/kg BID
  CD34+ primitive leukemic cells in RF and BM: decreased the most
  percentage of CD15 positive cells in RF and BM: elevated
Primary AML graft; AML 110500, 2.5 mg/kg QD and BID
  AML grafts in RF and BM: significantly decreased
Primary AML graft; AML 110500, 1.25 or 2.5 mg/kg QD or BID IP, 2 weeks, vs vehicle
  AML graft: reduced AML graft of patient sample AML 110500 cells in a dose-dependent manner
GSPT1; 2.5 mg/kg twice a day, 3 doses, 17 samples
  levels of GSPT1 in engrafted leukemia cells: decreased in RF or BM, or in both RF and BM in the majority of 17 samples tested
GSPT1; Pt120287 and 110555
  GSPT1 reduction: clear GSPT1 reduction in both RF and BM
GSPT1; Pt130607 and 150250
  GSPT1 reduction: did not show dramatic GSPT1 reduction
[2]
  stability in formulation: not stable in the formulation over time

From patent US20220378773A1, “METHODS FOR TREATING LEUKEMIA AND USE OF A LEUKEMIC STEM CELL SIGNATURE TO PREDICT CLINICAL SENSITIVITY TO THERAPIES” (CELGENE CORPORATION, priority 2019, published 2022)
